Reference: patent US9073821B2, “Hydroxamic acid derivative” (priority 2010, dated 2015)
Read-outs that look alike come from different tables or passages of the source.

Molecular target: Pseudomonas aeruginosa LpxC enzyme (Pseudomonas aeruginosa (strain ATCC 15692 / DSM 22644 / CIP 104116 / JCM 14847 / LMG 12228 / 1C / PRS 101 / PAO1), UniProt P47205)
Experiment: biochemical
Type: biochemical
[1] = inhibitory activity on Pseudomonas aeruginosa LpxC enzyme, class symbols A/B/C, read-out: Enzyme inhibitory activity
[2] = class symbols A/B/C by IC50, Table 3, read-out: Enzyme inhibitory activity (inhibitory activity on Pseudomonas aeruginosa LpxC enzyme)

Row | Compound | IC50 [1] [nM] | IC50 [2] [nM]
1 | CNC(=O)C(C(=O)NO)N(C)C(=O)c1ccc(-c2ccc(C(=O)N(C)C)cc2)cc1 (stereo not drawn) [Compound 252, N-[1-(hydroxyamino)-3-(methylamino)-1,3-dioxopropan-2-yl]-N,N′,N′-trimethylbiphenyl-4,4′-dicarboxamide] | 10 to 100 | 
2 | CNC(=O)C(C(=O)NO)N(C)C(=O)c1ccc(-c2ccc(C(C)(C)C)cc2)cc1 (stereo not drawn) [Compound 240, 2-{[(4′-tert-butylbiphenyl-4-yl)carbonyl](methyl)amino}-N-hydroxy-N′-methylpropanediamide] | 10 to 100 | 
3 | CNC(=O)C(C(=O)NO)N(C)C(=O)c1ccc(-c2ccc(SC)nc2)cc1 (stereo not drawn) [Compound 469, N-hydroxy-N′-methyl-2-[methyl({4-[6-(methylsulfanyl)pyridin-3-yl]phenyl}carbonyl)amino]propanediamide] | 10 to 100 | 
4 | CNC(=O)C(C(=O)NO)N(C)C(=O)c1ccc(C#Cc2ccc(N3CCC(N4CCOCC4)CC3)cc2)cc1 (stereo not drawn) [Compound 496, N-hydroxy-N′-methyl-2-(methyl {[4-({4-[4-(morpholin-4-yl)piperidin-1-yl]phenyl}ethynyl)phenyl]carbonyl}amino)propanediamide] |  | < 10
5 | CNC(=O)C(C(=O)NO)N(C)C(=O)c1ccc(C#Cc2ccc(CN3CC4(CCC4)C3)cc2)cc1 (stereo not drawn) [Compound 524, 2-{[(4-{[4-(2-azaspiro[3.3]hept-2-ylmethyl)phenyl]ethynyl}phenyl)carbonyl](methyl)amino}-N-hydroxy-N′-methylpropanediamide] |  | 10 to 100
6 | CNC(=O)C(C(=O)NO)N(C)C(=O)c1ccc(-c2nc3ccccc3o2)cc1 (stereo not drawn) [Compound 347, 2-[{[4-(1,3-benzoxazol-2-yl)phenyl]carbonyl}(methyl)amino]-N-hydroxy-N′-methylpropanediamide] | > 100 | 
7 | CCCC(C)(C)CNCc1ccc(C#Cc2ccc(C(=O)N(C)C(C(=O)NC)C(=O)NO)cc2)cc1 (stereo not drawn) [Compound 510, 2-[({4-[(4-{[(2,2-dimethylpentyl)amino]methyl}phenyl)ethynyl]phenyl}carbonyl)(methyl)amino]-N-hydroxy-N′-methylpropanediamide] |  | < 10
8 | COCCNC(=O)C(NC(=O)c1ccc(-c2ccc(OCCO)cc2)cc1)C(=O)NO (stereo not drawn) [Compound 131, N-hydroxy-2-({[4′-(2-hydroxyethoxy)biphenyl-4-yl]carbonyl}amino)-N′-(2-methoxyethyl)propanediamide] | 10 to 100 | 
9 | CNC(=O)C(C(=O)NO)N(C)C(=O)c1ccc(C#Cc2csc(COC)c2)cc1 (stereo not drawn) [Compound 436, N-hydroxy-2-[(4-{[5-(methoxymethyl)thiophen-3-yl]ethynyl}benzoyl)(methyl)amino]-N′-methylpropanediamide] | 10 to 100 | 
10 | CNC(=O)C(C(=O)NO)N(C)C(=O)c1ccc(-c2ccc3c(c2)cc(CN2CCOCC2)n3C)cc1 (stereo not drawn) [Compound 46, N-hydroxy-N′-methyl-2-(methyl {4-[1-methyl-2-(morpholin-4-ylmethyl)-1H-indol-5-yl]benzoyl}amino)propanediamide] | 10 to 100 | 
11 | CCOC1CN(Cc2ccc(C#Cc3ccc(C(=O)N(C)C(C(=O)NC)C(=O)NO)cc3)cc2C)C1 (stereo not drawn) [Compound 562, 2-[{[4-({4-[(3-ethoxyazetidin-1-yl)methyl]-3-methylphenyl}ethynyl)phenyl]carbonyl}(methyl)amino]-N-hydroxy-N′-methylpropanediamide] |  | < 10
12 | CNC(=O)C(C(=O)NO)N(C)C(=O)c1ccc(-c2ccc(CNC3CC3)cc2)cc1 (stereo not drawn) [Compound 205, 2-[({4′-[(cyclopropylamino)methyl]biphenyl-4-yl}carbonyl)(methyl)amino]-N-hydroxy-N′-methylpropanediamide] | 10 to 100 | 
13 | Cn1ccc(CNC(=O)C(NC(=O)c2ccc(-c3ccc(OCCO)cc3)cc2)C(=O)NO)n1 (stereo not drawn) [Compound 140, N-hydroxy-2-({[4′-(2-hydroxyethoxy)biphenyl-4-yl]carbonyl}amino)-N′-[(1-methyl-1H-pyrazol-3-yl)methyl]propanediamide] | < 10 | 
14 | Cc1cccc(CNC(=O)C(NC(=O)c2ccc(-c3ccc(OCCO)cc3)cc2)C(=O)NO)n1 (stereo not drawn) [Compound 150, N-hydroxy-2-({[4′-(2-hydroxyethoxy)biphenyl-4-yl]carbonyl}amino)-N′-[(6-methylpyridin-2-yl)methyl]propanediamide] | < 10 | 
15 | CN(C(=O)c1ccc(C#Cc2ccc(CN3CCCOCC3)cc2)cc1)C(C(=O)NO)C(=O)NCc1ccccn1 (stereo not drawn) [Compound 520, N-hydroxy-2-{methyl[(4-{[4-(1,4-oxazepan-4-ylmethyl)phenyl]ethynyl}phenyl)carbonyl]amino}-N′-(pyridin-2-ylmethyl)propanediamide] |  | < 10

The next lines start with the values.

Row | IC50 [1] [nM] | IC50 [2] [nM] | Compound
16 | < 10 |  | CNC(=O)C(C(=O)NO)N(C)C(=O)c1ccc(C#Cc2ccc(C(C)N3CCOCC3)cc2)cc1 (stereo not drawn) [Compound 367, N-hydroxy-N′-methyl-2-(methyl {[4-({4-[1-(morpholin-4-yl)ethyl]phenyl}ethynyl)phenyl]carbonyl}amino)propanediamide]
17 | < 10 |  | CNC(=O)C(C(=O)NO)N(C)C(=O)c1ccc(-c2ccc(OCCF)cc2)cc1 (stereo not drawn) [Compound 255, 2-[{[4′-(2-fluoroethoxy)biphenyl-4-yl]carbonyl}(methyl)amino]-N-hydroxy-N′-methylpropanediamide]
18 | < 10 |  | CNC(=O)C(C(=O)NO)N(C)C(=O)c1ccc(-c2ccc(C)cc2F)c(F)c1 (stereo not drawn) [Compound 460, 2-{[(2,2′-difluoro-4′-methylbiphenyl-4-yl)carbonyl](methyl)amino}-N-hydroxy-N′-methylpropanediamide]
19 | < 10 |  | CNC(=O)C(C(=O)NO)N(C)C(=O)c1ccc(-c2ccc(OC)c(F)c2)cc1 (stereo not drawn) [Compound 216, 2-{[(3′-fluoro-4′-methoxybiphenyl-4-yl)carbonyl](methyl)amino}-N-hydroxy-N′-methylpropanediamide]
20 | < 10 |  | CNC(=O)C(C(=O)NO)N(C)C(=O)c1ccc(-c2ccc3[nH]c(C)cc3c2)cc1 (stereo not drawn) [Compound 203, N-hydroxy-N′-methyl-2-{methyl[4-(2-methyl-1H-indol-5-yl)benzoyl]amino}propanediamide]
21 | < 10 |  | CNC(=O)C(C(=O)NO)N(C)C(=O)c1ccc(C#CC#Cc2ccc(CNC3CC3)cc2)cc1 (stereo not drawn) [Compound 476, 2-[{[4-(4-{4-[(cyclopropylamino)methyl]phenyl}buta-1,3-diyn-1-yl)phenyl]carbonyl}(methyl)amino]-N-hydroxy-N′-methylpropanediamide]
22 | < 10 |  | CNC(=O)C(C(=O)NO)N(C)C(=O)c1ccc(C#Cc2ccc(CN3CCN(C)CC3)cc2)cc1 (stereo not drawn) [Compound 304, N-hydroxy-N′-methyl-2-(methyl {[4-({4-[(4-methylpiperazin-1-yl)methyl]phenyl}ethynyl)phenyl]carbonyl}amino)propanediamide]
23 | < 10 |  | CNC(=O)C(C(=O)NO)N(C)C(=O)c1ccc(C#Cc2coc(CN3CCOCC3)c2)cc1 (stereo not drawn) [Compound 483, N-hydroxy-N′-methyl-2-{methyl[(4-{[5-(morpholin-4-ylmethyl)furan-3-yl]ethynyl}phenyl)carbonyl]amino}propanediamide]
24 | < 10 |  | CNC(=O)C(C(=O)NO)N(C)C(=O)c1ccc(-c2ccc(NC)c(Cl)c2)cc1 (stereo not drawn) [Compound 227, 2-[{[3′-chloro-4′-(methylamino)biphenyl-4-yl]carbonyl}(methyl)amino]-N-hydroxy-N′-methylpropanediamide]
